Our source for the melting point values is a melting point compilation (Tetko et al.; mined from patent text by program, amines drawn as free bases though some values may be those of a salt).

Turning to `O=C1OC(c2ccccc2)(c2ccccc2)C2CN(c3nc4ccccc4o3)CCN12` (stereo not given), the melting point stood at 260 °C.
Then `O=C(Nc1ccc(N2CCNCC2)c(C(F)(F)F)c1)c1ccc(F)c(OCc2cnc3ccccc3c2)c1`, with 76 to 78 °C; and `CC(C)(CNc1ccc(C(=O)CCC(=O)O)cc1)[N+](=O)[O-]`, with 198 to 200 °C; and `CC1S/C(=N/N=C\c2ccc(-c3ncn(-c4ccc(OC(F)(F)F)cc4)n3)cc2)N(c2ccccc2C2CC2)C1=O` (stereo not given), with 112 to 115 °C.
For `COCCOCCOC(=O)C1C=Nc2c(ccc3cccnc23)C1=O` (stereo not given) the value was 164 to 165 °C.
Then `Cc1cccc(Cl)c1N1CCCN(C(C)C)C1=S`, with 135 to 136 °C.
`O=c1oc(-c2cccc(Cl)c2)nc2ccccc12`: the melting point was 158 to 160 °C.
Then `CC(C)Oc1ccc(OC(C)C)c(OCCN2C(=O)c3ccccc3C2=O)c1`, with 66 °C; and `CC12CC(O)C3(F)C(CCC4=CC(=O)C=CC43C)C1CCC2S` (stereo not given), with 295 to 297 °C; and `CCOc1ccc2c(c1)CCC(Oc1ncnc3ccccc13)C2` (stereo not given), with 115 to 117 °C.
Then `CC(C)Cn1c(=O)n(C)c(=O)c2c(I)n(Cc3cccc4ccccc34)cc21`, with 140 to 142 °C; and `COc1ccc(C=NO)c(OC)c1C`, with 110 to 111 °C.
For `CC1COCc2nc3c(N)nc4cc(CCC(=O)N5CCOCC5)ccc4c3n21` (stereo not given) the value was 245 to 247 °C.
On to `CNc1ccc(C(=N)NC(=O)OCc2ccccc2)c(F)c1`, for which the melting point is 128 to 130 °C.
Then `COc1cc2c(cc1OC)N(C(=O)C=Cc1ccccc1)CC(N(C)C)C2` (stereo not given), with 97 to 98 °C; and `Cc1c(C2=NNC(=O)SC2C)ccc2c1C(C)(C)C(=O)N2` (stereo not given), with 279 °C; and `COC(=O)C(=C(C)C)N1CC(NC(=O)COc2ccccc2)C1=O` (stereo not given), with 154 to 155 °C.
Then `N#Cc1ccc(C(O)(Cc2ccccc2)Cc2ccccc2)cc1`, with 153 °C.
In the case of `COC(=O)c1ccc(N2CCNC2=O)cc1`, the melting point is greater than 200 °C.
Then `O=C1Cc2cc(C(=O)CCl)c(Br)cc2N1`, with 238 to 239 °C; and `OC(Cn1cncn1)(c1ccc(F)cc1)C(F)(F)c1ccc(F)cc1` (stereo not given), with 128 to 130 °C; and `CC(C)(C)CNc1cc(NCC(C)(C)C)nc(Cl)n1`, with 178 to 185 °C.
Then `CCCc1c(C(=O)NCc2ccc3cc(O)ccc3c2)cnn1-c1ccccc1`, with 189 to 190 °C.
Then `CC1(C)CCC2CCCCC2C1NC=NC#N` (stereo not given), with 228 °C.
With `CC(C)NC(=O)c1nsc2ccc(-n3c(=O)cc(C(F)(F)F)n(C)c3=O)cc12`, the melting point was 110 to 113 °C.
Take `O=c1c(N2CCCNCC2)nc2cc(F)ccc2n1-c1ccccc1`: the melting point lay within 151 to 152 °C.
As to `C/C(=C(\C#N)C(N)=S)N1CCCSCC1`, the melting point was in the range of 138 to 142 °C.
For `Nc1nccc(Oc2ccc3c(C(=O)O)cccc3c2)n1` the value was 205 °C.
For `CCOC(=O)c1nccc(NC=O)n1` the value was 205 to 206 °C.
For `O=C(O)c1cn2c3c(cc(F)cc3c1=O)C1CCCCC12` (stereo not given) the value was 281 to 282 °C; for `Cc1cc(-c2cc(C(F)F)n3ncc(C(=O)Nc4cccc(S(=O)(=O)N5CCN(C)CC5)c4)c3n2)ccc1C(F)(F)F`, 198 °C.
With `N=C1SCCN1c1ccc(N)cc1[N+](=O)[O-]`, the melting point lay in the range of 138 to 139 °C.
Molecule `CC1(CCN2C(=O)c3cccc([N+](=O)[O-])c3C2O)OCCO1` (stereo not given) returned a melting point of 130 °C.
On to `CON=C(C#N)C(=O)Nc1ccc(OC(F)C(F)(F)F)cc1` (stereo not given), for which the melting point was 109 to 110 °C.
For `COC(=O)c1ccc2[nH]cc(C(C)=O)c2c1` the value was 235 to 236 °C; for `CS(=O)(=O)c1ccc(Cn2c3c(c4cc(F)cc(F)c42)CCCC(CC(=O)O)C3)cc1` (stereo not given), 200 to 202 °C.
For `CCNC(=S)NC1=Nc2ccc(OC(F)(F)F)cc2CS1` the value was 169 to 172 °C.
Then `COC(=O)NNC(=S)Cc1ccc(F)cc1`, with 150 to 152 °C; and `COc1ccc(Nc2ccc(Nc3ncnc4cc(-c5ccc(OC)nc5)sc34)cc2)cc1`, with 149 to 159 °C.
For `N=C(NCCCc1c[nH]cn1)NC1CCN(c2ccc(C3=NNC(=O)CC3CO)cc2[N+](=O)[O-])CC1` (stereo not given), the melting point fell in the range of 135 to 137 °C.
Then `O=C1NC(=O)C(c2c3n(c4ccccc24)CCC(CO)C3)=C1c1cccc(C(F)(F)F)c1` (stereo not given), with 77 to 79 °C; and `COc1ccc(S(=O)(=O)Nc2ccccc2NC(=O)c2cccs2)cc1`, with 136 to 137 °C.
For `COC1=C(c2cccc(C(F)(F)F)c2)C(CCC(=O)O)OC1=O` (stereo not given) the value was 132 °C.
For `Cc1ccc(S(=O)(=O)n2cc(F)c(=O)[nH]c2=O)cc1` the value was 241 to 242 °C; for `CN1CCCC1=NC(=O)Nc1c(Cl)cc(Cl)cc1Cl`, 160 to 162 °C; for `O=C(OCc1ccccn1)c1cccc(-n2cnc3cc(-c4ccccc4)ccc32)c1`, 149 to 150 °C.
Regarding `N#CC1C(=O)Nc2cc(Cl)ccc2C1=O` (stereo not given), the melting point fell in the range of 314 to 316 °C.
For `CCOC(=O)CN=c1sc2ccccc2s1` the value was 88 to 89 °C; for `O=C1NC(=O)c2ccccc2/C1=C/Nc1ccc(CCN2CCCC2)cc1`, 224 to 225 °C; for `C[C@@H](NC(=O)OC(C)(C)C)c1nc2c(Cl)cccc2s1`, 95 to 96 °C.
For `COc1ccc(C2CSc3ccccc3N(CCO)C2=O)cc1` (stereo not given) the value was 133 °C; for `O=C(O[C@@H]1[C@@H](Br)C[C@]2(O)C[C@H]1OC2=O)c1ccccc1`, 142 to 143 °C; for `C=C(C)C=COCC1CCn2c(nc3ccccc32)S1` (stereo not given), 56 to 60 °C.
For `Cn1cc(-c2cc3cccnc3[nH]2)c2cc(O)ccc21` the value was 199 to 200 °C; for `CN1CCC(OC(=O)Cc2cnn(-c3ccccc3)c2-c2ccc(Cl)cc2)CC1`, 90 to 93 °C; for `O=C1CN(Cc2ccccc2)c2cc(-c3cccc(Cl)c3)ccc2N1`, 182 to 185 °C.
Regarding `CNC(=O)c1ccccc1Nc1nc(Nc2ccc3c(c2)NC(=O)CCC3)ncc1Cl`, the melting point was 293 to 295 °C.
For `CCOC(=O)c1cc(N(C)C)ncn1` the value was 40 to 42 °C.
The molecule `CCCSc1ncc(CC(NC(C)=O)C(=O)O)n1Cc1ccccc1Cl` (stereo not given) yielded a melting point of 182 to 184 °C.
Then `Cc1cccc(-c2ccc(-c3cnn(Cc4ccc([N+](=O)[O-])cc4)c(=O)c3-c3ccc(F)cc3)cc2)c1S(=O)(=O)O`, with 183 to 184 °C.
Then `CNC(=O)NNC(=S)N1N=C(c2ccc([N+](=O)[O-])cc2)c2cc3c(cc2CC1C)OCO3` (stereo not given), with 200 °C; and `Cc1c(C(=O)Nc2ccc(N3CCOCC3)c(C#N)c2)cnn1-c1ccc(F)cc1`, with 201 to 202 °C.
Consider `CCCCCOc1cc2c(cc1/C=C/C=C/C(C)=C/C(=O)O)C(C)(C)CCC2(C)C`, for which the melting point was in the range of 162 to 163 °C.
For `CC1Cc2cc(O)ccc2C2C(F)CC3(C)CC(O)CC3C12` (stereo not given) the value was 239 to 240 °C; for `CC(C)CN(Cc1nc(-c2ncn3c2CN(C)C(=O)c2c(Cl)cccc2-3)no1)CC(C)C`, 125 to 128 °C.
For `CCCCCCCCCCCCCCCCc1cc(-c2ccccn2)nc(-c2ccccn2)c1` the value was 97.5 to 99 °C; for `O=c1c2ccc(Cl)cc2[nH]n1-c1ccccc1F`, 205 to 215 °C.
Then `O=C(NCc1ccc(Cl)cc1)c1cn(Cc2cccc(F)c2)c2sc(CN3CCOCC3)cc2c1=O`, with 214 to 215 °C; and `COC(=O)c1cccc(OCc2ccc(Cl)c(Cl)c2)c1`, with 87 to 88 °C.
In turn, `CCCOc1ncc(S(C)(=O)=O)cc1-c1nc2c(CC)nn(C[C@@H]3CCCN3C)c2c(=O)[nH]1` registered a melting point of 182 to 183 °C.
As to `NC(=O)OCc1cc2c(Oc3ccc(Cl)cc3)cncc2s1`, the melting point was 113 to 115 °C.
For `CSc1ccnc(Oc2cc(C#N)cc(C#N)c2)n1` the value was 237 °C; for `CC(C)(C)OC(=O)N1CCN(C(=O)SCc2ccc(OCc3ccc(F)cc3)cc2)CC1`, 123 to 124 °C.
For `CCOC(=O)C1=C(N)NC(N)=C(C(=O)OCC)C1c1ccccc1-c1ccccc1` the value was 215 °C; for `C=C(C(=O)O)c1ccccc1OC`, 144 °C; for `Fc1ccc(Nc2ncnc3cnc(N4CCC(N5CCCC5)CC4)nc23)cc1Cl`, 202 to 204 °C.
Regarding `O=C1CCc2c1cccc2-c1ccc(C(F)(F)F)cc1`, the melting point is 75 to 78 °C.
As for `O=C(NCC1(c2nc(C3CC3)cs2)CC1)c1ccccc1C(F)(F)F`, the melting point fell in the range of 83.4 to 84.2 °C.
For `CC(C)OC(=O)c1cc(-n2c(=O)[nH]c3c(c2=O)CCC3)c(F)cc1Br` the value was 214 to 216 °C.
For `Cc1oc(-c2ccccc2)nc1COc1ccc(Cn2cc(CC(=O)O)c(-c3ccccc3)n2)cn1` the value was 144 to 145 °C; for `CC(=O)Oc1ccc(C2COc3c(ccc(OC(C)=O)c3C)C2O)cc1` (stereo not given), 135 to 137 °C; for `CN(CCSc1ccc(C=C2SC(=O)NC2=O)cc1)c1nc2ccccc2o1`, 189 °C.
On to `Cc1cccc2c1C(=O)CC2=O`, for which the melting point was in the range of 125 to 128 °C.
In the case of `CC(C)(C)c1cc(SCCC=O)cc(C(C)(C)C)c1O`, the melting point is 64 to 65 °C.
Then `Cc1ccc2c(c1)S(=O)(=O)N=CN2C1CC1`, with 192 to 195 °C; and `COc1cc(/C=C/C(=O)/C=C/c2ccc(O)c(OC)c2)ccc1O`, with 82 to 83 °C; and `CCOC(=O)c1cnn(C)c1C(=O)Nc1ccn2nc(-c3cccnc3F)nc2c1`, with 249 to 251 °C.
Then `CCCCC(Oc1ccc(CCNS(=O)(=O)c2ccc(Cl)cc2)cc1)C(=O)O` (stereo not given), with 138 to 139 °C.
For `COc1ccc(S(=O)(=O)NCCCO)c(OC)c1OC` the value was 95 to 97 °C; for `COC(=O)c1ccc(OCCNC(=O)C2Cc3ccccc3N2S(=O)(=O)c2ccc(-c3ccc(F)cc3)cc2)cc1F` (stereo not given), 77 to 81 °C.

The term melting point denotes the temperature of the solid-liquid transition.
